Reference: ChEMBL document CHEMBL1201861, “Genomics of Drug Sensitity in Cancer screening data, Wellcome Trust Sanger Institute”
pIC50: −log10 of the molar value. Each block holds one compound with its values, some of them ahead of it.

Experiments:
YKG-1 = assay: cells; format: functional, cell-based; settings: Homo sapiens;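 note: cell growth inhibition, read out with a viability assay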
Description: SANGER: Inhibition of human YKG-1 cell growth in a cell viability assay.

SW756 = assay: cells; format: functional, cell-based; settings: Homo sapiens;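 note: growth inhibition of human SW756 cells, read out with a cell viability assay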
Description: SANGER: Inhibition of human SW756 cell growth in a cell viability assay.

ME-180 = assay: cells; format: functional, cell-based; settings: Homo sapiens;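 note: cell viability assay measuring growth inhibition of ME-180 cells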
Description: SANGER: Inhibition of human ME-180 cell growth in a cell viability assay.

M059J = assay: cells; format: functional, cell-based; settings: Homo sapiens;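 note: growth inhibition of M059J cells, read out with a cell viability assay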
Description: SANGER: Inhibition of human M059J cell growth in a cell viability assay.

Hs-578T = assay: cells; format: functional, cell-based; settings: Homo sapiens
Description: SANGER: Inhibition of human Hs-578-T cell growth in a cell viability assay.

NY = assay: cells; format: functional, cell-based; settings: Homo sapiens
Description: SANGER: Inhibition of human NY cell growth in a cell viability assay.

LC-1F = assay: cells; format: functional, cell-based, Homo sapiens; settings: Homo sapiens, LC-1F;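 note: growth inhibition of human LC-1F cells, read out with a cell viability assay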
Description: SANGER: Inhibition of human LC-1F cell growth in a cell viability assay.

NCI-H2141 = assay: cells; format: functional, cell-based, Homo sapiens; settings: Homo sapiens, NCI-H2141;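 note: growth inhibition of human NCI-H2141 cells, read out with a cell viability assay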
Description: SANGER: Inhibition of human NCI-H2141 cell growth in a cell viability assay.

PF-382 = assay: cells; format: functional, cell-based, Homo sapiens; settings: Homo sapiens, PF-382
Description: SANGER: Inhibition of human PF-382 cell growth in a cell viability assay.

HSC-4 = assay: cells; format: functional, cell-based; settings: Homo sapiens;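 note: growth inhibition of human HSC-4 cells, read out with a cell viability assay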
Description: SANGER: Inhibition of human HSC-4 cell growth in a cell viability assay.

HEC-1 = assay: cells; format: functional, cell-based; settings: Homo sapiens;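 note: growth inhibition of the cell line, read out with a cell viability assay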
Description: SANGER: Inhibition of human HEC-1 cell growth in a cell viability assay.

RT-112 = assay: cells; format: functional, cell-based; settings: Homo sapiens
Description: SANGER: Inhibition of human RT-112 cell growth in a cell viability assay.

HCC 2998 = assay: cells; format: functional, cell-based; settings: Homo sapiens;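 note: growth inhibition of human HCC2998 cells, measured with a cell viability read-out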
Description: SANGER: Inhibition of human HCC2998 cell growth in a cell viability assay.

SCC-3 = assay: cells; format: functional, cell-based, Homo sapiens; settings: Homo sapiens, SCC-3;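 note: cell viability assay measuring inhibition of SCC-3 cell growth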
Description: SANGER: Inhibition of human SCC-3 cell growth in a cell viability assay.

NCI-H1882 = assay: cells; format: functional, cell-based, Homo sapiens; settings: Homo sapiens, NCI-H1882;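 note: growth inhibition of the cell line, determined with a viability assay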
Description: SANGER: Inhibition of human NCI-H1882 cell growth in a cell viability assay.

NCI-H661 = assay: cells; format: functional, cell-based; settings: Homo sapiens;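 note: cell viability assay read-out, IC50 being the concentration that inhibits growth of the cells by half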
Description: SANGER: Inhibition of human NCI-H661 cell growth in a cell viability assay.

TUR = assay: cells; format: functional, cell-based, Homo sapiens; settings: Homo sapiens, TUR;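 note: growth inhibition of human TUR cells, read out with a cell viability assay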
Description: SANGER: Inhibition of human TUR cell growth in a cell viability assay.

C3A = assay: cells; format: functional, cell-based; settings: Homo sapiens;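 note: growth inhibition of C3A human cells, quantified with a cell viability readout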
Description: SANGER: Inhibition of human C3A cell growth in a cell viability assay.

NCI-H460 = assay: cells; format: functional, cell-based; settings: Homo sapiens;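 note: cell viability assay scoring growth inhibition of human NCI-H460 cells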
Description: SANGER: Inhibition of human NCI-H460 cell growth in a cell viability assay.

LOUCY = assay: cells; format: functional, cell-based, Homo sapiens; settings: Homo sapiens, LOUCY;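 note: growth inhibition of human LOUCY cells, read out with a cell viability assay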
Description: SANGER: Inhibition of human LOUCY cell growth in a cell viability assay.

SNU-423 = assay: cells; format: functional, cell-based; settings: Homo sapiens
Description: SANGER: Inhibition of human SNU-423 cell growth in a cell viability assay.

SK-MEL-30 = assay: cells; format: functional, cell-based; settings: Homo sapiens;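 note: growth inhibition of SK-MEL-30 cells, determined with a cell viability assay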
Description: SANGER: Inhibition of human SK-MEL-30 cell growth in a cell viability assay.

HT-29 = assay: cells; format: functional, cell-based; settings: Homo sapiens;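 note: growth inhibition of human HT-29 cells, read out by a cell viability assay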
Description: SANGER: Inhibition of human HT-29 cell growth in a cell viability assay.

KOSC-2 = assay: cells; format: functional, cell-based; settings: Homo sapiens;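 note: growth inhibition of KOSC-2 cells, read out by a cell viability assay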
Description: SANGER: Inhibition of human KOSC-2 cell growth in a cell viability assay.

HT55 = assay: cells; format: functional, cell-based; settings: Homo sapiens;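 note: cell viability readout measuring growth inhibition of human HT55 cells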
Description: SANGER: Inhibition of human HT55 cell growth in a cell viability assay.

SIMA = assay: cells; format: functional, cell-based, Homo sapiens; settings: Homo sapiens, SIMA;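 note: growth inhibition of SIMA cells, measured with a cell viability readout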
Description: SANGER: Inhibition of human SIMA cell growth in a cell viability assay.

T-24 = assay: cells; format: functional, cell-based; settings: Homo sapiens;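 note: growth inhibition of T-24 cells, read out with a cell viability assay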
Description: SANGER: Inhibition of human T-24 cell growth in a cell viability assay.

Huh-7 = assay: cells; format: functional, cell-based; settings: Homo sapiens;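 note: HuH-7 cell growth inhibition, read out with a cell viability assay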
Description: SANGER: Inhibition of human HuH-7 cell growth in a cell viability assay.

BHT-101 = assay: cells; format: functional, cell-based; settings: Homo sapiens
Description: SANGER: Inhibition of human BHT-101 cell growth in a cell viability assay.

COLO-680N = assay: cells; format: functional, cell-based; settings: Homo sapiens;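 note: cell viability assay used to measure inhibition of COLO-680N cell growth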
Description: SANGER: Inhibition of human COLO-680N cell growth in a cell viability assay.

WM-115 = assay: cells; format: functional, cell-based; settings: Homo sapiens
Description: SANGER: Inhibition of human WM-115 cell growth in a cell viability assay.

UACC-893 = assay: cells; format: functional, cell-based; settings: Homo sapiens
Description: SANGER: Inhibition of human UACC-893 cell growth in a cell viability assay.

SKG-IIIa = assay: cells; format: functional, cell-based; settings: Homo sapiens;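 note: cell growth inhibition, read out with a cell viability assay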
Description: SANGER: Inhibition of human SKG-IIIa cell growth in a cell viability assay.

ECC4 = assay: cells; format: functional, cell-based, Homo sapiens; settings: Homo sapiens, ECC4;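 note: growth inhibition of ECC4 cells, read out with a cell viability assay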
Description: SANGER: Inhibition of human ECC4 cell growth in a cell viability assay.

AN3-CA = assay: cells; format: functional, cell-based; settings: Homo sapiens;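 note: growth inhibition of human AN3-CA cells measured by a cell viability assay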
Description: SANGER: Inhibition of human AN3-CA cell growth in a cell viability assay.

HCC1569 = assay: cells; format: functional, cell-based; settings: Homo sapiens;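 note: growth inhibition of human HCC1569 cells, read out with a cell viability assay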
Description: SANGER: Inhibition of human HCC1569 cell growth in a cell viability assay.

LC4-1 = assay: cells; format: functional, cell-based, Homo sapiens; settings: Homo sapiens, LC4-1;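 note: growth inhibition of LC4-1 cells, read out with a cell viability assay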
Description: SANGER: Inhibition of human LC4-1 cell growth in a cell viability assay.

CHP-126 = assay: cells; format: functional, cell-based, Homo sapiens; settings: Homo sapiens, CHP-126
Description: SANGER: Inhibition of human CHP-126 cell growth in a cell viability assay.

NCI-H1993 = assay: cells; format: functional, cell-based; settings: Homo sapiens;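 note: growth inhibition of the cancer cell line, assessed with a cell viability assay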
Description: SANGER: Inhibition of human NCI-H1993 cell growth in a cell viability assay.

CAL-27 = assay: cells; format: functional, cell-based; settings: Homo sapiens;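 note: Viability-based readout, IC50 reflecting inhibition of CAL-27 cell growth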
Description: SANGER: Inhibition of human CAL-27 cell growth in a cell viability assay.

KYSE-410 = assay: cells; format: functional, cell-based; settings: Homo sapiens;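 note: growth inhibition of KYSE-410 cells, measured through a cell viability readout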
Description: SANGER: Inhibition of human KYSE-410 cell growth in a cell viability assay.

SW1710 = assay: cells; format: functional, cell-based; settings: Homo sapiens;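 note: growth inhibition of SW1710 cells, determined with a cell viability assay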
Description: SANGER: Inhibition of human SW1710 cell growth in a cell viability assay.

TCC-SUP = assay: cells; format: functional, cell-based; settings: Homo sapiens;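 note: growth inhibition of TCC-SUP cells, read out with a cell viability assay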
Description: SANGER: Inhibition of human TCCSUP cell growth in a cell viability assay.

CP66-MEL = assay: cells; format: functional, cell-based; settings: Homo sapiens;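 note: growth inhibition of CP66-MEL cells determined in a cell viability assay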
Description: SANGER: Inhibition of human CP66-MEL cell growth in a cell viability assay.

EB-3 = assay: cells; format: functional, cell-based, Homo sapiens; settings: Homo sapiens, EB-3;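 note: human EB-3 cells, growth inhibition read out via a cell viability assay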
Description: SANGER: Inhibition of human EB-3 cell growth in a cell viability assay.

NCI-H1623 = assay: cells; format: functional, cell-based; settings: Homo sapiens;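 note: cell viability assay used as the read-out for growth inhibition of NCI-H1623 cells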
Description: SANGER: Inhibition of human NCI-H1623 cell growth in a cell viability assay.

MDA-MB-231 = assay: cells; format: functional, cell-based; settings: Homo sapiens
Description: SANGER: Inhibition of human MDA-MB-231 cell growth in a cell viability assay.

MDA-MB-415 = assay: cells; format: functional, cell-based; settings: Homo sapiens
ST486 = assay: SANGER: Inhibition of human ST486 cell growth in a cell viability assay.; format: functional, cell-based; settings: Homo sapiens, ST486
NB12 = assay: cells; format: functional, cell-based; settings: Homo sapiens;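 note: growth inhibition of human NB12 cells, read out by a cell viability assay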
Description: SANGER: Inhibition of human NB12 cell growth in a cell viability assay.

BXPC-3 = assay: cells; format: functional, cell-based; settings: Homo sapiens;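 note: growth inhibition of human BxPC-3 cells, read out by a cell viability assay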
Description: SANGER: Inhibition of human BxPC-3 cell growth in a cell viability assay.

UO-31 = assay: cells; format: functional, cell-based; settings: Homo sapiens
Description: SANGER: Inhibition of human U031 cell growth in a cell viability assay.

NCI-H650 = assay: cells; format: functional, cell-based; settings: Homo sapiens;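 note: growth inhibition of NCI-H650 cells, read out by a viability assay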
Description: SANGER: Inhibition of human NCI-H650 cell growth in a cell viability assay.

CPC-N = assay: cells; format: functional, cell-based, Homo sapiens; settings: Homo sapiens, CPC-N;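 note: growth inhibition of CPC-N cells, with a cell viability assay as the readout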
Description: SANGER: Inhibition of human CPC-N cell growth in a cell viability assay.

JEG-3 = assay: cells; format: functional, cell-based; settings: Homo sapiens;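 note: growth inhibition of human JEG-3 cells, read out with a cell viability assay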
Description: SANGER: Inhibition of human JEG-3 cell growth in a cell viability assay.

NCI-H2196 = assay: cells; format: functional, cell-based, Homo sapiens; settings: Homo sapiens, NCI-H2196; read-out: IC50;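 note: cell viability assay used as the readout of growth inhibition in NCI-H2196 cells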
Description: SANGER: Inhibition of human NCI-H2196 cell growth in a cell viability assay.

Panc1005 = assay: cells; format: functional, cell-based; settings: Homo sapiens;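 note: growth inhibition of human PANC-10-05 cells, measured by a cell viability assay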
Description: SANGER: Inhibition of human PANC-10-05 cell growth in a cell viability assay.

SCLC-21H = assay: cells; format: functional, cell-based, Homo sapiens; settings: Homo sapiens, SCLC-21H;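 note: growth inhibition of cultured human SCLC-21H cells, read out with a cell viability assay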
Description: SANGER: Inhibition of human SCLC-21H cell growth in a cell viability assay.

UACC-62 = assay: cells; format: functional, cell-based; settings: Homo sapiens;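 note: growth inhibition of human UACC-62 cells, read out by a cell viability assay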
Description: SANGER: Inhibition of human UACC-62 cell growth in a cell viability assay.

SMILES: CCCCCCCCCCCC1=C(O)C(=O)C=C(O)C1=O [EMBELIN]
pIC50 (YKG-1): 5.05 | pIC50 (SW756): < 4.49 | pIC50 (ME-180): 4.51 | pIC50 (M059J): 4.88 | pIC50 (Hs-578T): 4.95 | pIC50 (NY): 5.32 | pIC50 (LC-1F): 4.51 | pIC50 (NCI-H2141): 4.57 | pIC50 (PF-382): 5.21 | pIC50 (HSC-4): 4.95 | pIC50 (HEC-1): 4.88 | pIC50 (RT-112): 4.90 | pIC50 (HCC 2998): 5.17 | pIC50 (SCC-3): < 4.49 | pIC50 (NCI-H1882): < 4.49 | pIC50 (NCI-H661): 4.72 | pIC50 (TUR): < 4.49 | pIC50 (C3A): 4.81 | pIC50 (NCI-H460): 5.22 | pIC50 (LOUCY): 5.29 | pIC50 (SNU-423): < 4.49 | pIC50 (SK-MEL-30): 4.89 | pIC50 (HT-29): 5.12 | pIC50 (KOSC-2): < 4.49 | pIC50 (HT55): < 4.49 | pIC50 (SIMA): 5.20 | pIC50 (T-24): < 4.49 | pIC50 (Huh-7): < 4.49 | pIC50 (BHT-101): 4.70 | pIC50 (COLO-680N): 4.71 | pIC50 (WM-115): 4.86 | pIC50 (UACC-893): 4.66 | pIC50 (SKG-IIIa): < 4.49 | pIC50 (ECC4): 4.62 | pIC50 (AN3-CA): 5.20 | pIC50 (HCC1569): 4.99 | pIC50 (LC4-1): < 4.49 | pIC50 (CHP-126): < 4.49 | pIC50 (NCI-H1993): < 4.49 | pIC50 (CAL-27): 4.88 | pIC50 (KYSE-410): 5.20 | pIC50 (SW1710): 4.85 | pIC50 (TCC-SUP): 4.94 | pIC50 (CP66-MEL): 5.35 | pIC50 (EB-3): 4.68 | pIC50 (NCI-H1623): 4.60 | pIC50 (MDA-MB-231): 4.66 | pIC50 (MDA-MB-415): 4.52 | pIC50 (ST486): 5.08 | pIC50 (NB12): 5.08 | pIC50 (BXPC-3): 5.19 | pIC50 (UO-31): 4.72 | pIC50 (NCI-H650): 4.78 | pIC50 (CPC-N): < 4.49 | pIC50 (JEG-3): 4.78 | pIC50 (NCI-H2196): < 4.49 | pIC50 (Panc1005): < 4.49 | pIC50 (SCLC-21H): < 4.49 | pIC50 (UACC-62): 5.76

pIC50 (HSC-4): < 6.29 | pIC50 (HEC-1): < 6.29 | pIC50 (NCI-H460): < 6.29 | pIC50 (KOSC-2): < 6.29 | pIC50 (AN3-CA): 6.49
SMILES: CO[C@@H]1[C@H](N(C)C(=O)c2ccccc2)C[C@H]2O[C@]1(C)n1c3ccccc3c3c4c(c5c6ccccc6n2c5c31)C(=O)NC4 [MIDOSTAURIN]
pIC50 (ST486): 6.46

SMILES: C/C(=C\c1csc(C)n1)[C@@H]1C[C@@H]2O[C@]2(C)CCC[C@H](C)[C@H](O)[C@@H](C)C(=O)C(C)(C)[C@@H](O)CC(=O)O1 [PATUPILONE]
pIC50 (YKG-1): 8.91 | pIC50 (SW756): < 7.49 | pIC50 (ME-180): 8.24 | pIC50 (M059J): 8.87 | pIC50 (Hs-578T): < 7.49 | pIC50 (NY): 8.81 | pIC50 (LC-1F): < 7.49 | pIC50 (NCI-H2141): 7.86 | pIC50 (PF-382): 8.06 | pIC50 (HSC-4): 7.52 | pIC50 (HEC-1): 8.04 | pIC50 (RT-112): 9.21 | pIC50 (HCC 2998): 8.98 | pIC50 (SCC-3): < 7.49 | pIC50 (NCI-H1882): < 7.49 | pIC50 (NCI-H661): 7.52 | pIC50 (TUR): 8.73 | pIC50 (C3A): 8.47 | pIC50 (NCI-H460): 9.48 | pIC50 (LOUCY): 8.36 | pIC50 (SNU-423): 8.78 | pIC50 (SK-MEL-30): 8.87 | pIC50 (HT-29): 9.30 | pIC50 (KOSC-2): 8.55 | pIC50 (HT55): < 7.49 | pIC50 (SIMA): 7.72 | pIC50 (T-24): 7.69 | pIC50 (Huh-7): 8.15 | pIC50 (BHT-101): 8.82 | pIC50 (COLO-680N): 8.14 | pIC50 (WM-115): < 7.49 | pIC50 (UACC-893): < 7.49 | pIC50 (SKG-IIIa): < 7.49 | pIC50 (ECC4): < 7.49 | pIC50 (AN3-CA): 9.34 | pIC50 (HCC1569): 7.89 | pIC50 (LC4-1): 7.89 | pIC50 (CHP-126): < 7.49 | pIC50 (NCI-H1993): < 7.49 | pIC50 (CAL-27): 8.86 | pIC50 (KYSE-410): 8.99 | pIC50 (SW1710): > 9.90 | pIC50 (TCC-SUP): 8.35 | pIC50 (CP66-MEL): 7.93 | pIC50 (EB-3): < 7.49 | pIC50 (NCI-H1623): 7.77 | pIC50 (MDA-MB-231): 7.61 | pIC50 (MDA-MB-415): 7.70 | pIC50 (ST486): 9.14 | pIC50 (NB12): < 7.49 | pIC50 (BXPC-3): 8.76 | pIC50 (UO-31): 8.51 | pIC50 (NCI-H650): 9.77 | pIC50 (CPC-N): 7.97 | pIC50 (JEG-3): 8.30 | pIC50 (NCI-H2196): < 7.49 | pIC50 (Panc1005): 8.95 | pIC50 (SCLC-21H): 8.12 | pIC50 (UACC-62): < 7.49
